In PubChem BioAssay AID248 (DTP/NCI, 2004) one finds T/C data, which are given here for 20 compounds.

Values joined by “and” are separate entries in the source; they are usually repeats but may differ in a detail not shown here. Identical values can stand only once. Inconclusive results and toxic doses are left out.

For the assay, the system named is L1210 leukemia ip in BDF1 mice, survival T/C. Put plainly: NCI In Vivo Anticancer Drug Screen. Data for tumor model L1210 Leukemia (intraperitoneal) in B6D2F1 (BDF1) mice. Particulars: endpoint: mean survival time, higher = longer survival. In short, it runs like this:
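Read-out is survival time, reported as the treated-group measurement over the vehicle-control measurement.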

Where [1] appears, read: dose: 100.0 mg/kg/injection, schedule: Q01DX001 (ip), vehicle: Klucel (hydroxypropylcellulose) (HPC).
Setting [2] is: dose: 200.0 mg/kg/injection, schedule: Q01DX001 (ip), vehicle: Klucel (hydroxypropylcellulose) (HPC).
Where [3] appears, read: dose: 400.0 mg/kg/injection, schedule: Q01DX001 (ip), vehicle: Klucel (hydroxypropylcellulose) (HPC).
[4] abbreviates: dose: 100.0 mg/kg/injection, schedule: Q04DX002 (ip), vehicle: Klucel (hydroxypropylcellulose) (HPC).
[5] abbreviates: dose: 100.0 mg/kg/injection, schedule: Q04DX003 (ip), vehicle: saline.
[6] abbreviates: dose: 200.0 mg/kg/injection, schedule: Q04DX003 (ip), vehicle: saline.
[7] abbreviates: dose: 400.0 mg/kg/injection, schedule: Q04DX003 (ip), vehicle: saline.
[8] abbreviates: dose: 100.0 mg/kg/injection, schedule: Q04DX003 (ip), vehicle: saline with Tween-80.
Setting [9] is: dose: 200.0 mg/kg/injection, schedule: Q04DX003 (ip), vehicle: saline with Tween-80.
[10] abbreviates: dose: 400.0 mg/kg/injection, schedule: Q04DX003 (ip), vehicle: saline with Tween-80.
Where [11] appears, read: dose: 100.0 mg/kg/injection, schedule: Q01DX001 (ip), vehicle: saline.
The mark [12] stands for this setting: dose: 200.0 mg/kg/injection, schedule: Q01DX001 (ip), vehicle: saline.
Setting [13] is: dose: 100.0 mg/kg/injection, schedule: Q01DX009 (ip), vehicle: saline with Tween-80.
The mark [14] stands for this setting: dose: 200.0 mg/kg/injection, schedule: Q01DX009 (ip), vehicle: saline with Tween-80.
[15] abbreviates: dose: 400.0 mg/kg/injection, schedule: Q01DX001 (ip), vehicle: saline.
Where [16] appears, read: dose: 100.0 mg/kg/injection, schedule: Q04DX003 (ip), vehicle: Klucel (hydroxypropylcellulose) (HPC).
[17] abbreviates: dose: 200.0 mg/kg/injection, schedule: Q04DX003 (ip), vehicle: Klucel (hydroxypropylcellulose) (HPC).
Setting [18] is: dose: 400.0 mg/kg/injection, schedule: Q04DX003 (ip), vehicle: Klucel (hydroxypropylcellulose) (HPC).
Setting [19] is: dose: 50.0 mg/kg/injection, schedule: Q01DX001 (ip), vehicle: saline.

`c1ccc2cc(C3SCCS3)ccc2c1`: the T/C (dose: 75.0 mg/kg/injection, schedule: Q04DX003 (ip), vehicle: Klucel (hydroxypropylcellulose) (HPC)) is 88 % of control; the T/C under setting [1] is 95 % of control; the T/C (dose: 150.0 mg/kg/injection, schedule: Q04DX003 (ip), vehicle: Klucel (hydroxypropylcellulose) (HPC)) is 86 % of control; the T/C under setting [2] was 97 % of control; the T/C (dose: 300.0 mg/kg/injection, schedule: Q04DX003 (ip), vehicle: Klucel (hydroxypropylcellulose) (HPC)) was 110 % of control; the T/C under setting [3] is 101 % of control.
As for `CC(=O)Cc1c[nH]c2ccccc12`, the T/C was 103 % of control (dose: 50.0 mg/kg/injection, schedule: Q01DX001 (ip), vehicle: carboxymethylcellulose (CMC)); 97 % of control (dose: 100.0 mg/kg/injection, schedule: Q01DX001 (ip), vehicle: carboxymethylcellulose (CMC)); 97 % of control under setting [4]; 106 % of control (dose: 200.0 mg/kg/injection, schedule: Q01DX001 (ip), vehicle: carboxymethylcellulose (CMC)); 101 % of control (dose: 200.0 mg/kg/injection, schedule: Q04DX002 (ip), vehicle: Klucel (hydroxypropylcellulose) (HPC)); 103 % of control (dose: 400.0 mg/kg/injection, schedule: Q01DX001 (ip), vehicle: carboxymethylcellulose (CMC)). In addition, for the setting “dose: 400.0 mg/kg/injection, schedule: Q04DX002 (ip), vehicle: Klucel (hydroxypropylcellulose) (HPC)”, the T/C is 111 % of control.
Turning to `NC(=O)n1cccn1`, the T/C by setting is: (dose: 25.0 mg/kg/injection, schedule: Q01DX Z (ip), vehicle: carboxymethylcellulose (CMC)) 100 % of control; (dose: 50.0 mg/kg/injection, schedule: Q01DX Z (ip), vehicle: carboxymethylcellulose (CMC)) 102 % of control; (dose: 100.0 mg/kg/injection, schedule: Q01DX Z (ip), vehicle: carboxymethylcellulose (CMC)) 102 % of control; (dose: 200.0 mg/kg/injection, schedule: Q01DX Z (ip), vehicle: carboxymethylcellulose (CMC)) 100 % of control and 109 % of control; (dose: 400.0 mg/kg/injection, schedule: Q01DX Z (ip), vehicle: carboxymethylcellulose (CMC)) 102 % of control.
Take `COc1ccc2c(C)cc(C)nc2n1`: the T/C reads like this: (dose: 75.0 mg/kg/injection, schedule: Q04DX002 (ip), vehicle: saline) 104 % of control; (dose: 150.0 mg/kg/injection, schedule: Q04DX002 (ip), vehicle: saline) 112 % of control; (dose: 300.0 mg/kg/injection, schedule: Q04DX002 (ip), vehicle: saline) 108 % of control.
For the compound `Cc1cc(C)c(C)c(C(=O)O)c1C`, the T/C is, setting by setting: (dose: 100.0 mg/kg/injection, schedule: Q01DX001 (ip), vehicle: acetone) 98 % of control; (dose: 100.0 mg/kg/injection, schedule: Q01DX009 (ip), vehicle: acetone) 101 % of control; under setting [5], 88 % of control; (dose: 200.0 mg/kg/injection, schedule: Q01DX001 (ip), vehicle: acetone) 89 % of control; (dose: 200.0 mg/kg/injection, schedule: Q01DX009 (ip), vehicle: acetone) 106 % of control; under setting [6], 102 % of control. Also, the T/C reads like this: (dose: 400.0 mg/kg/injection, schedule: Q01DX001 (ip), vehicle: acetone) 94 % of control; (dose: 400.0 mg/kg/injection, schedule: Q01DX009 (ip), vehicle: acetone) 105 % of control; under setting [7], 112 % of control.
`CCOC(=O)c1cc2ccccc2c2ccccc12`: the T/C under setting [8] was 98 % of control, the T/C under setting [9] was 95 % of control and the T/C under setting [10] was 98 % of control.
In the case of `CC(=O)Nc1ccc(Cc2ccc(N)cc2)cc1`, the T/C under setting [11] was 108 % of control and the T/C under setting [12] was 104 % of control.
As to `Cc1cc(N(CCCl)CCCl)ccc1C=Nc1ccccc1-c1ccccc1`, the T/C is, setting by setting: (dose: 5.0 mg/kg/injection, schedule: Q01DX Z (ip), vehicle: carboxymethylcellulose (CMC)) 110 % of control; (dose: 10.0 mg/kg/injection, schedule: Q01DX Z (ip), vehicle: carboxymethylcellulose (CMC)) 114 % of control; (dose: 40.0 mg/kg/injection, schedule: Q01DX Z (ip), vehicle: carboxymethylcellulose (CMC)) 109 % of control; (dose: 80.0 mg/kg/injection, schedule: Q01DX Z (ip), vehicle: carboxymethylcellulose (CMC)) 117 % of control.
In the case of `C=CCN(C)/N=N/c1[nH]ncc1C(N)=O`, the T/C reads like this: (dose: 14.5 mg/kg/injection, schedule: Q01DX009 (ip), vehicle: saline with Tween-80) 116 % of control; (dose: 44.0 mg/kg/injection, schedule: Q04DX003 (ip), vehicle: saline with Tween-80) 114 % of control; (dose: 50.0 mg/kg/injection, schedule: Q01DX009 (ip), vehicle: saline with Tween-80) 157 % of control; (dose: 50.0 mg/kg/injection, schedule: Q04DX003 (ip), vehicle: saline with Tween-80) 119 % of control; (dose: 67.0 mg/kg/injection, schedule: Q04DX003 (ip), vehicle: saline with Tween-80) 114 % of control; (dose: 100.0 mg/kg/injection, schedule: Q01DX001 (ip), vehicle: saline with Tween-80) 109 % of control. Also, the T/C by setting is: under setting [13], 154 % of control; under setting [14], 88 % of control.
In the case of `C1=Nc2cc3c(cc2Cn2cccc21)OCO3`, the T/C (dose: 25.0 mg/kg/injection, schedule: Q04DX002 (ip), vehicle: Klucel (hydroxypropylcellulose) (HPC)) is 86 % of control; the T/C (dose: 50.0 mg/kg/injection, schedule: Q04DX002 (ip), vehicle: Klucel (hydroxypropylcellulose) (HPC)) was 94 % of control; the T/C under setting [4] is 94 % of control.
As to `CC(C)(CCN)[N+](=O)[O-]`, the T/C was 96 % of control under setting [11], 96 % of control under setting [12] and 102 % of control under setting [15].
For the compound `COc1ccc(-c2nc3ccccc3s2)cc1OC`, the T/C by setting is: under setting [16], 95 % of control and 105 % of control; under setting [17], 98 % of control and 102 % of control; under setting [18], 98 % of control and 105 % of control.
Regarding `N#Cc1c(/N=C/c2ccc3c(c2)CCC3)oc(-c2ccccc2)c1-c1ccccc1`, the T/C under setting [16] is 103 % of control, the T/C under setting [17] is 97 % of control and the T/C under setting [18] is 94 % of control.
Consider `C/C(=N/N(C)C)c1ccccn1`, for which the T/C reads like this: under setting [13], 104 % of control; under setting [8], 91 % of control; under setting [14], 95 % of control; under setting [9], 95 % of control; under setting [10], 106 % of control.
On to `CC(C)CC(=O)CC(O)(C(F)(F)F)C(F)(F)F`, for which the T/C is 101 % of control (dose: 50.0 mg/kg/injection, schedule: Q01DX009 (ip), vehicle: saline); 94 % of control (dose: 50.0 mg/kg/injection, schedule: Q04DX003 (ip), vehicle: saline); 104 % of control (dose: 100.0 mg/kg/injection, schedule: Q01DX009 (ip), vehicle: saline); 92 % of control under setting [5]; 104 % of control (dose: 200.0 mg/kg/injection, schedule: Q01DX009 (ip), vehicle: saline); 100 % of control under setting [6]. In addition, the T/C was 93 % of control (dose: 400.0 mg/kg/injection, schedule: Q01DX009 (ip), vehicle: saline) and 103 % of control under setting [7].
On to `O=C1NC(=O)C(c2cccc(O)c2)N1` (stereo not drawn), for which the T/C by setting is: under setting [19], 100 % of control; under setting [11], 100 % of control; under setting [12], 100 % of control; under setting [15], 100 % of control.
As to `O=NN1CCCCC1`, the T/C reads like this: under setting [19], 93 % of control; under setting [11], 104 % of control; under setting [12], 96 % of control.
`Cc1cc2ccc(OC(=O)c3ccc(N=C(N)N)cc3)cc2oc1=O`: the T/C runs as follows: under setting [8], 97 % of control; under setting [9], 95 % of control; under setting [10], 98 % of control.
For `CCOC(=O)c1nnc(CC)[nH]c1=O`, the T/C under setting [1] was 106 % of control, the T/C under setting [2] was 111 % of control and the T/C under setting [3] is 90 % of control.
Consider `CN/N=C/c1cc(=O)[nH]c(=O)[nH]1`, for which the T/C reads like this: under setting [19], 101 % of control; under setting [11], 104 % of control; under setting [12], 95 % of control.
